The subject of one assay is primary MEF cells. Kind of assay: Phase-contrast microscopy and Hoechst staining of infected or treated MEF cells. The class given is cell-based, mouse. Particulars: Hoechst dye, 15 h. The source says: Cells and viruses. All cells were maintained in Dulbecco's modified Eagle's medium (DMEM) containing 5% fetal bovine serum. Human larynx epidermoid carcinoma HEp-2 (Moore, Cancer Res.1955, 15:598-605), epithelial cervical carcinoma HeLa S3 (Puck, et al, J. Exp. Med.1956, 103:273-284, osteosarcoma 143B (Post and Roizman, Cell 1981, 25:227-32), and African green monkey kidney Vero (Yasumura and Kawakita, Nippon Rinsho 1963, 21:1209) cells were obtained from the American Type Culture Collection (Rockville, Md. V2.2 is a derivative Vero cell line, which carries a stably integrated copy of the ICP27 gene (Rice and Knipe, J Virol. 1990, 64:1704-15). Adenovirus type 5 transformed human primary embryonal kidney 293 (Graham et al., J Gen Virol. 1977, 36:59-74) and SV40 T antigen expressing 293T cells were obtained from the ATCC. […]
To assess whether rdHSV-1 triggers apoptosis in infected MEF, cell morphologies were documented by phase-contrast microscopy and condensed nuclei were visualized following staining with a fluorescent Hoechst dye. […] Cells were analyzed 15 h post-infection. […] Few, if any, cells with condensed nuclei were detected following infection with either rdHSV-1 strain. […]

For a further assay, the system named is 293 cells. Put plainly: Immunoblots for PARP, caspase-3 and p53 in infected or treated 293 cells. The format is cell-based, human. As for the experimental part:
Cells and viruses. All cells were maintained in Dulbecco's modified Eagle's medium (DMEM) containing 5% fetal bovine serum. […]
Extraction of cells and denaturing gel electrophoresis. Whole extracts of cells were obtained as previously described (Aubert and Blaho, J Virol. 1999, 73:2803-2813; Aubert et al., J. Virol. 1999, 73:10359-70) Protein concentrations were measured using a modified Bradford assay (Biorad) as recommended by the vendor. […]
The results above indicate that cells whose p53 is undermodified are susceptible to apoptosis triggered by rdHSV-1 while those which accumulate phosphorylated p53 are resistant. To confirm the prediction that the amount of phosphorylated p53 present in a given cell is an accurate indicator of whether the cell will be killed by an rdHSV-1, 293 cells were analyzed. […]
A general note: A western blot detects proteins with antibodies after separation by electrophoresis.

Assay [1] relates to primary human foreskin fibroblast (HFF) cells. Put plainly: Hoechst staining, fluorescence and phase-contrast microscopy of HFF cells. The conditions noted are these: Hoechst DNA dye. The format is cell-based. As for the experimental part:
(§1) Biochemical induction of apoptosis. Cell apoptosis was induced by the addition of staurosporine (Calbiochem, San Diego, Calif.) to the medium at a final concentration of either 1 or 2 μM. Cells were maintained in the presence of staurosporine for 24 h. TNF (Sigma) was added directly to medium at a final concentration of 10 ng/ml in combination with cycloheximide (Sigma) at a final concentration of 10 μg/ml for 24 h.
Microscopic analyses and computer graphics. Infected cell phenotypes were documented by phase-contrast light microscopy using an Olympus CK2/PM-10AK3 system with an attached 35 mm camera. For analyses of chromatin condensation, cells were grown and infected (as described above) in a 35-mm plate. At 24 hours post infection, the cells were incubated with the DNA dye Hoechst 33258 (Sigma) at a final concentration of 5 μg/ml in PBS for 15 minutes at 37° C. […]
The transformed cell lines we analyzed above were of human origin. […] We assessed the p53 status, the susceptibility of rdHSV-1 infection, and the ability to undergo apoptosis of primary human foreskin fibroblast (HFF) cells by immunoblotting, Hoechst staining, and DNA laddering assays. […] Finally, we stained the infected and treated HFF cells with Hoechst DNA dye and visualized cellular and nuclear morphologies by fluorescence and phase-contrast microscopy. […]

Assay [2] has the same test system. Put plainly: DNA laddering by ethidium bromide staining in HFF cells. The class given is cell-based. Particulars: low molecular weight DNA. The procedure:
as §1
DNA laddering by ethidium bromide staining. Low molecular weight DNA was isolated from cells as described (Koyama and Miwa, J. Virol. 1997, 71:2567; Aubert and Blaho, J. Virol. 1999, 73:2803). The DNA samples were subjected to electropheresis in a horizontal 1.5% agarose gel, followed by staining with 10 μg/ml ethidium bromide. DNA was visualilzed by UV light transillumination and photographed with Polaroid 67 film.
The transformed cell lines we analyzed above were of human origin. Thus, it was necessary to confirm our MEF cell results using a primary human cell line. We assessed the p53 status, the susceptibility of rdHSV-1 infection, and the ability to undergo apoptosis of primary human foreskin fibroblast (HFF) cells by immunoblotting, Hoechst staining, and DNA laddering assays. […] Finally, we stained the infected and treated HFF cells with Hoechst DNA dye and visualized cellular and nuclear morphologies by fluorescence and phase-contrast microscopy. […]

Here are results for 1 compound from patent publication US20020187126A1, “Methods for viral oncoapoptosis in cancer therapy” (priority 2001, published 2002).

The structures appear in SMILES notation.

As to `CN[C@@H]1C[C@H]2O[C@@](C)([C@@H]1OC)n1c3ccccc3c3c4c(c5c6ccccc6n2c5c31)C(=O)NC4` [staurosporine], the “cells with condensed nuclei / chromatin” value in the assay with primary MEF cells is recorded as “significant number of small apoptotic cells which contained condensed chromatin”. For the same compound, the “signs of apoptosis (PARP processing)” value with 293 cells (environmental stimulators, double dose of STS) was “no signs of apoptosis were detected”. Besides, the “apoptosis (PARP and caspase-3 processing)” value in the assay with 293 cells (presence or absence of CHX) is “did not undergo apoptosis”. For the same compound, in assay [1], the “condensed chromatin / features of apoptosis” value was “showed features indicative of apoptosis”. In addition, in assay [2], the “DNA laddering / fragmentation” value is listed as “DNA fragmentation that migrated as a smear”.
